Experimental data: patent US12312292B2, “Long chain alkyl esteramine lipid compound, preparation method therefor and application thereof in nucleic acid delivery” (RinuaGene Biotechnology Co., Ltd., priority 2022, dated 2025)

Experiments:
luciferase mRNA = assay: Detection of reporter gene (luciferase mRNA) expression in mice in vivo; parameters: species or system BALB/c female mice; conditions: LNP-delivered luciferase mRNA, quadriceps muscle injection, IVIS 24 h after injection; dose (5 or 14 μg mRNA) not given
Protocol: The prepared LNP-encapsulated mRNA solution was diluted with PBS buffer to obtain the solution for injection. BALB/c female mice at about 20 g were injected with injection solution at the quadriceps muscle site of mice with an insulin syringe, and each mouse was injected with 50 μL. Two doses were designed: one dose of “5 μg mRNA per 50 μL of injection solution” and the other dose of “14 μg mRNA per 50 μL of injection solution”. BALB/c female mice at about 20 g are injected with PBS buffer at the quadriceps muscle site of mice with an insulin syringe, and each mouse was injected with 50 μL.
After the mice were injected for 24 h, in vivo expression of Luciferase was detected with Perkinelmer's IVIS. The substrate was D-luciferin Sodium salt (GOLDBIO, LUCNA-1G), which was formulated into a concentration of 15 mg/mL with normal saline, filtered and sterilized with a 0.22 μm filter membrane, and stored at −20° C. in aliquots protected from light. Before imaging, each mouse at about 20 g was intraperitoneally injected with 200 μL of substrate solution for 10-20 minutes, and then was anesthetized with isoflurane gas and placed prone on the imaging plate to detect the fluorescence of the animal in vivo, and the results are shown in Table 2.

BALB/c female mice = assay: Acute toxicity analysis of lipid molecules (cationic lipid LNP) in BALB/c female mice; conditions: blood 24 h after injection, Ave(SD)
[1] = In vivo expression distribution analysis of delivered luciferase mRNA (RT-PCR in tissues); parameters: species or system C57BL/6J mice; conditions: delivered luciferase mRNA, single intramuscular injection 50 μg, 2 h-336 h, RT-PCR
Protocol: In order to investigate the distribution features of lipid-delivering mRNA in vivo, we analyzed the distribution features of the reporter luciferase mRNA of the compounds of the present invention in C57BL/6J mice after administration by a single intramuscular injection. The experimental 10 C57BL/6J mice were enrolled, male and female, each administered 50 μg, with SM102 as the control.
Animals in the negative control group were collected at 2 h and 336 h after administration, and animals in the test group were collected at 2 h, 6 h, 24 h, 48 h, 72 h, 120 h, 168 h, and 336 h after administration whole blood, bone marrow, liver, spleen, heart, kidney, inguinal lymph nodes, mesenteric lymph nodes, spleen, brain, stomach, small intestine, non-injection site muscle, injection site muscle tissue, etc. The RNA content in the samples at each time point was detected by RT-PCR, and the lower limit of quantification of the method was […] to reflect the distribution features in C57BL/6J mice.

SD rat = assay: Liver injury toxicity analysis of lipid molecules in SD rat (serum ALT and AST); assay type: in vivo; conditions: SD rats, 3 mg/kg mRNA encoding Luciferase via tail vein, serum 24 hours after injection; compared with SM102 (FIGS. 4A, 4B)
Source text: In order to further investigate the hepatic injury toxicity of exemplary compounds, we analyze the effect of the compounds of the present invention on serum alanine aminotransferase (ALT) and […] (AST) levels. The experimental 30 SD rats (15 females+15 males, purchased from Zhejiang Weitong Lihua Laboratory Animal Technology Co., Ltd.) were randomly divided into three groups, namely negative control group (PBS), SM102 group, and compound 2 group, each group of […]. According to body weight, each rat was injected with 3 mg/kg of mRNA encoding Luciferase through the tail vein, fasted overnight with supplying water, and whole blood was collected 24 hours after injection, and serum was isolated. The concentration of ALT and AST in the serum of each rat was detected with a fully automated biochemical analyzer, and the test results are shown in FIGS. 4A and 4B.

## CCCCCCCCCCCOC(=O)CCCCCN(CCCCCCO)CCCCCCCC(=O)OC(CCCCCCCC)CCCCCCCC [Example 2]
Luciferase mRNA
  Average fluorescence intensity: 1.144E+06 P/s/cm^2/sr
BALB/c female mice; high dose group, 150 μg LNP/pc
  Alanine aminotransferase: 41.54 U/L
  Alkaline phosphatase (ALP): 111.86 U/L
  Aspartate aminotransferase: 124.48 U/L
  Creatinine: 12.6 µmol/L
  Total bilirubin (TBIL): 1.25
  γ-Glutamyltransferase (GGT): 0.20 (0.18) U/L
BALB/c female mice; low dose group, 50 μg/pc
  Alanine aminotransferase: 35.32 (2.51) U/L
  Alkaline phosphatase (ALP): 113.3 U/L
  Aspartate aminotransferase: 111.74 U/L
  Creatinine: 12.6 µmol/L
  Total bilirubin (TBIL): 1.22 (0.20)
  γ-Glutamyltransferase (GGT): 0.40 (0.37) U/L
[1]
  Exposure in tissues and organs, from high to low: injection site muscle, inguinal lymph nodes, whole blood, spleen, non-injection site muscle, bone marrow, heart, liver, mesenteric lymph nodes, kidney, small intestine and brain
SD rat
  Elevation effect on serum ALT and AST: significantly lower than these of compound SM102
